Read-outs that look alike come from different tables or passages of the source.
How the values were obtained:
FGFR2 = biological target: T1, FGFR2 (Homo sapiens, UniProt P21802); experiment: FGFR2 Biochemical Caliper Assay (KinEASE-TK kit); conditions: 0.07 nM FGFR2; compound incubated with protein 10 min, reaction 45 min at RT; read-out: FGFR2 Cliper IC50
T1 construct: purchased Carna 08-134
Protocol: Compounds of the present invention were tested in a FGFR1, FGFR2, and FGFR3 Biochemical Caliper Assay.
(§1) Enzyme activity was monitored using KinEASE-TK kit (CisBio, Cat.No. 62TK0PEC) according to manufacturer's instructions. […] Final enzyme concentration was 0.2 nM for FGFR1 and FGFR3, 0.07 nM for FGFR2. Compounds were prepared in 10 mM DMSO and serially diluted into 10 concentrations by 3-fold dilution. Prior to the initiation of the reaction by adding TK-substrate/ATP mixture, the compounds were incubated with protein for 10 min at RT. […] Plates were quenched by adding TK-antibody-Cryptate and Sa-XL665 mixture. After 60 min in the stop solution, read the signal on microplate reader (Molecular Devices, i3x), excitation of 320 nm and emission of 615 nm and 665 nm with a […]. IC50 values were calculated using Prism 7 (GraphPad).

SNU16 cells = experiment: SNU16 Cancer Cell Line Proliferation Assay (CellTiter-Glo); format: cell-based
Protocol: Compounds of the present invention were also tested in a SNU16 Cancer Cell Line Proliferation Assay.
SNU16 cells were plated in 96-well clear bottom/white plate(Costar, Cat.No. 3610) at 5000 cells/well in 100 μl medium. Test compounds were prepared in a 10 mM DMSO stock solution and serially diluted into 9 concentrations by 3-fold dilution. 0.5 μl of each concentration of compound was added into the cell culture plates and DMSO as a control. The plates were incubated for 72 h at 37° C. and 5% CO2 incubator. 50 μl CellTiter-Glo reagent (Promega, G7572) was added into each well and then the plates were shaken gently for 10 min at room temperature. Luminescence was read on microplate reader (Molecular Devices, i3x), IC50 values were calculated using Prism 7 (GraphPad).

FGFR3 = biological target: T2, FGFR3 (Homo sapiens, UniProt P22607); experiment: FGFR3 Biochemical Caliper Assay (KinEASE-TK kit); conditions: ratio FGFR3/FGFR2 of the biochemical assay
T2 construct: purchased Carna 08-135
Protocol: as §1, with “Compounds of the present invention were tested in a FGFR1, FGFR2, and FGFR3 Biochemical Caliper Assay. Enzyme” for “Enzyme”

FGFR1 = biological target: T3, FGFR1 (Homo sapiens, UniProt P11362); experiment: FGFR1 Biochemical Caliper Assay (KinEASE-TK kit); conditions: ratio FGFR1/FGFR2 of the biochemical assay
T3 construct: purchased Carna 08-133
Protocol: as §1, with “Compounds of the present invention were tested in a FGFR1, FGFR2, and FGFR3 Biochemical Caliper Assay. Enzyme” for “Enzyme”

T1 sequence (P21802 22-821): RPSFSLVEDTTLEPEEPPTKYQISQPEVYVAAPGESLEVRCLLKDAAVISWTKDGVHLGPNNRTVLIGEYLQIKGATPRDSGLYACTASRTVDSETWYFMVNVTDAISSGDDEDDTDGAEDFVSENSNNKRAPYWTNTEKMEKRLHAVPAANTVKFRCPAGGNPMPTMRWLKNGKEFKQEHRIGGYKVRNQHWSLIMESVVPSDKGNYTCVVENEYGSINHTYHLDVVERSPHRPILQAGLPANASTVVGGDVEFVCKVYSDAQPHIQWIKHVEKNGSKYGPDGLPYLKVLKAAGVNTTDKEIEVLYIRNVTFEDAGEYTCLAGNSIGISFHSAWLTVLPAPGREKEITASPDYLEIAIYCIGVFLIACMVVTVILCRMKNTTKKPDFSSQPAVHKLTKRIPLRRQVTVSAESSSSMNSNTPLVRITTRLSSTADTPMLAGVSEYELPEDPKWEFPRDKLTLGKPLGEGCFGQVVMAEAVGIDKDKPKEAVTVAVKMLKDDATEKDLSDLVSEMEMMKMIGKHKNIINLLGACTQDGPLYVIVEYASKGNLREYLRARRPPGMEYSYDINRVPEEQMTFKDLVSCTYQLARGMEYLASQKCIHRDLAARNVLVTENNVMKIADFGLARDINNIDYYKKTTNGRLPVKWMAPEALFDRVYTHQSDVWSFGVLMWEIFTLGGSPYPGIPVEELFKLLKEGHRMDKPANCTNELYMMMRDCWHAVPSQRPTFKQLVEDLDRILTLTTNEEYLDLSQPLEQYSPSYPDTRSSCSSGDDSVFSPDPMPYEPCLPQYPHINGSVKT
T2 sequence (P22607 23-806): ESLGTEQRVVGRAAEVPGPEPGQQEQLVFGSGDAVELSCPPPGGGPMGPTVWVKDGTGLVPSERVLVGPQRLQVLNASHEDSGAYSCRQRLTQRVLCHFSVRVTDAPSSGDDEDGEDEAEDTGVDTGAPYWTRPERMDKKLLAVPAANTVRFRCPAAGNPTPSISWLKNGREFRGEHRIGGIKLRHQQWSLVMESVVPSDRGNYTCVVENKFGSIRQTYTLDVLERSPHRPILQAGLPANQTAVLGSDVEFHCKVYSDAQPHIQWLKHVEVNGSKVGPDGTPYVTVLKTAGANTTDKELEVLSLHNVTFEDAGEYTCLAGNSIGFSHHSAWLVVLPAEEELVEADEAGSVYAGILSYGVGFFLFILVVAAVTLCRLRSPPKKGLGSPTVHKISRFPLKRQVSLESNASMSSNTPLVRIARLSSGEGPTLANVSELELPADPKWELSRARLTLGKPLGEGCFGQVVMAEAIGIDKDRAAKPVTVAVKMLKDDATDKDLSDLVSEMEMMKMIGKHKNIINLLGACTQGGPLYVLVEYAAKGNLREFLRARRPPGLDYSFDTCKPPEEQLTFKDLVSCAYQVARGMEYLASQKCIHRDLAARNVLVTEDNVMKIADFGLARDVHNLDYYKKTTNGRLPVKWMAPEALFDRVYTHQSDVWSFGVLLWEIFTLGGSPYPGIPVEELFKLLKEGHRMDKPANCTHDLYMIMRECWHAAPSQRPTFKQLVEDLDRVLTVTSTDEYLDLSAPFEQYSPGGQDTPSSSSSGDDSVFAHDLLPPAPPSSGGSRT
T3 sequence (P11362 22-822): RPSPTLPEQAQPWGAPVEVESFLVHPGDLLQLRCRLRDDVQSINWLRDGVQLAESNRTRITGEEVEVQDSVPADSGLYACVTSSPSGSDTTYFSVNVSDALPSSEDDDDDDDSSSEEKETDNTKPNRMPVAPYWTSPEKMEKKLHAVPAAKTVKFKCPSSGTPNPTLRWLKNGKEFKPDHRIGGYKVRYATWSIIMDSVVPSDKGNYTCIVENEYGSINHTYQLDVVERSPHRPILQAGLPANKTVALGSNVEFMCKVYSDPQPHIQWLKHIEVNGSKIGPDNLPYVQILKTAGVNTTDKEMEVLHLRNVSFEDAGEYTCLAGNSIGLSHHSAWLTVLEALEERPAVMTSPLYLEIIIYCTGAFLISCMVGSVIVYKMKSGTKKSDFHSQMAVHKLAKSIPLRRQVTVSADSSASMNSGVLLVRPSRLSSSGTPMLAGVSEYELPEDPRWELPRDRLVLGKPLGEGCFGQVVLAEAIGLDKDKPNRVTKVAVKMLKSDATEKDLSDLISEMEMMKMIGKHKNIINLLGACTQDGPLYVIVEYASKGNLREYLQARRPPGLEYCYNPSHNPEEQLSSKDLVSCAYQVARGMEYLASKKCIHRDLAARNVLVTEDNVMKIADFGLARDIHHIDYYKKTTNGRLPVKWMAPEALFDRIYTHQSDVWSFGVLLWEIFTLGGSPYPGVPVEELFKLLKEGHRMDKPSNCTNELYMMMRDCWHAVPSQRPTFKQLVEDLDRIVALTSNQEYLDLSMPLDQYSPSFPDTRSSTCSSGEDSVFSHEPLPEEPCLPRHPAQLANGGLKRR

IC50 (FGFR2)	IC50 (SNU16 cells; Homo sapiens, SNU-16, 72 h)	IC50 (SNU16 cells; 72 h, read-out: Cell SNU-16 IC50)	Structure (SMILES)	Selectivity FGFR3/FGFR2 (FGFR3)	Selectivity FGFR1/FGFR2 (FGFR1)
< 5 nM	> 50 nM	–	C=CC(=O)Nc1ccc(-c2c(-c3ccc(Oc4nccc(C)n4)c(OC)c3)c3c(N)ncc(C(N)=O)c3n2C)cc1 [Compound 21, 2-(4-acrylamidophenyl)-4-amino-3-(3-methoxy-4-((4-methylpyrimidin-2-yl)oxy)phenyl)-1-methyl-1H-pyrrolo[3,2-c]pyridine-7-carboxamide]	A (Selectivity of FGFR3/FGFR2 less than 150 but greater than or equal to 100)	A+ (Selectivity of FGFR1/FGFR2 greater or equal to 500)
< 5 nM	≤ 10 nM	–	C=CC(=O)Nc1ccc(-c2[nH]c3c(C#N)cnc(N)c3c2-c2ccc(Oc3nccc(C)n3)c(OC)c2)cc1 [Compound 22, N-(4-(4-amino-7-cyano-3-(3-methoxy-4-((4-methylpyrimidin-2-yl)oxy)phenyl)-1H-pyrrolo[3,2-c]pyridin-2-yl)phenyl)acrylamide]	B (Selectivity of FGFR3/FGFR2 less than 100 but greater than or equal to 25)	A (Selectivity of FGFR1/FGFR2 less than 500 but greater than or equal to 300)
< 5 nM	≤ 10 nM	–	C=CC(=O)Nc1ccc(-c2[nH]c3c(C#N)cnc(N)c3c2-c2ccc(C(=O)NC3CC3)c(OC)c2)cc1 [Compound 23, 4-(2-(4-acrylamidophenyl)-4-amino-7-cyano-1H-pyrrolo[3,2-c]pyridin-3-yl)-N-cyclopropyl-2-methoxybenzamide]	A (Selectivity of FGFR3/FGFR2 less than 150 but greater than or equal to 100)	A+ (Selectivity of FGFR1/FGFR2 greater or equal to 500)
< 5 nM	≤ 10 nM	–	C=CC(=O)Nc1ccc(-c2nn3ncnc(N)c3c2-c2ccc(C(=O)NC3CCC3)c(OC)c2)cc1 [Compound 26, 4-(6-(4-acrylamidophenyl)-4-aminopyrazolo[5,1-f][1,2,4]triazin-5-yl)-N-cyclobutyl-2-methoxybenzamide]	B (Selectivity of FGFR3/FGFR2 less than 100 but greater than or equal to 25)	A (Selectivity of FGFR1/FGFR2 less than 500 but greater than or equal to 300)
< 5 nM	≤ 10 nM	–	C=CC(=O)Nc1ccc(-c2nn3ncnc(N)c3c2-c2ccc(C(=O)NCC(F)(F)F)c(OC)c2)cc1 [Compound 42, 4-(6-(4-acrylamidophenyl)-4-aminopyrazolo[5,1-f] [1,2,4]triazin-5-yl)-2-methoxy-N-(2,2,2-trifluoroethyl)benzamide]	A (Selectivity of FGFR3/FGFR2 less than 150 but greater than or equal to 100)	A (Selectivity of FGFR1/FGFR2 less than 500 but greater than or equal to 300)
< 5 nM	≤ 10 nM	–	C=CC(=O)Nc1ccc(-c2nn3ncnc(N)c3c2-c2ccc(C(=O)NCC3CCC3)c(OC)c2)cc1 [Compound 45, 4-(6-(4-acrylamidophenyl)-4-aminopyrazolo[5,1-f] [1,2,4]triazin-5-yl)-N-(cyclobutylmethyl)-2-methoxybenzamide]	B (Selectivity of FGFR3/FGFR2 less than 100 but greater than or equal to 25)	B (Selectivity of FGFR1/FGFR2 less than 300 but greater than or equal to 200)
< 5 nM	≤ 10 nM	–	C=CC(=O)Nc1ccc(-c2nn3ncnc(N)c3c2-c2ccc(C(=O)NCC3(C#N)CC3)c(OC)c2)cc1 [Compound 47, 4-(6-(4-acrylamidophenyl)-4-aminopyrazolo[5,1-f] [1,2,4]triazin-5-yl)-N-((1-cyanocyclopropyl)methyl)-2-methoxybenzamide]	B (Selectivity of FGFR3/FGFR2 less than 100 but greater than or equal to 25)	B (Selectivity of FGFR1/FGFR2 less than 300 but greater than or equal to 200)
< 5 nM	–	≤ 10 nM	C=C(F)C(=O)Nc1ccc(-c2nn3ncnc(N)c3c2-c2ccc(C(=O)NCC(C)C)cc2)cc1 [Compound 48, 4-(4-amino-6-(4-(2-fluoroacrylamido)phe-nyl)pyrazolo[5,1-f] [1,2,4]triazin-5-yl)-N-isobutylbenzamide]	B (Selectivity of FGFR3/FGFR2 less than 100 but greater than or equal to 25)	A+ (Selectivity of FGFR1/FGFR2 greater or equal to 500)
< 5 nM	≤ 10 nM	–	C=CC(=O)Nc1ccc(-c2nn3ncnc(N)c3c2-c2ccc(C(=O)NC3CCCC3)c(OC)c2)cc1 [Compound 55, 4-(6-(4-acrylamidophenyl)-4-aminopyrazolo[5,1-f] [1,2,4]triazin-5-yl)-N-cyclopentyl-2-methoxybenzamide]	A (Selectivity of FGFR3/FGFR2 less than 150 but greater than or equal to 100)	A+ (Selectivity of FGFR1/FGFR2 greater or equal to 500)
5 to 10 nM	≤ 10 nM	–	C=CC(=O)Nc1ccc(-c2nn3ncnc(N)c3c2-c2ccc(C(=O)NCC(C)(C)OC)c(OC)c2)cc1 [Compound 56, 4-(6-(4-acrylamidophenyl)-4-aminopyrazolo[5,1-f] [1,2,4]triazin-5-yl)-2-methoxy-N-(2-methoxy-2-methylpropyl)benzamide]	A (Selectivity of FGFR3/FGFR2 less than 150 but greater than or equal to 100)	A+ (Selectivity of FGFR1/FGFR2 greater or equal to 500)
5 to 10 nM	–	–	C=CC(=O)Nc1ccc(-c2nn3ncnc(N)c3c2-c2ccc(C(=O)NC3(C#N)CC3)c(OC)c2)cc1 [Compound 268, 4-(6-(4-acrylamidophenyl)-4-aminopyrazolo[5,1-f][1,2,4]triazin-5-yl)-N-(1-cyanocyclopropyl)-2-methoxybenzamide]	A+ (Selectivity of FGFR3/FGFR2 greater or equal to 150)	C (Selectivity of FGFR1/FGFR2 less than 200 but greater than or equal to 100)
< 5 nM	–	–	C=C(F)C(=O)Nc1ccc(-c2[nH]c3c(C#N)cnc(N)c3c2-c2ccc(C(=O)NC3CC3(F)F)c(OC)c2)cc1 (stereo not shown) [Compound 320, 4-(4-amino-7-cyano-2-(4-(2-fluoroacrylamido)phe-nyl)-1H-pyrrolo[3,2-c]pyridin-3-yl)-N-(2,2-difluorocyclopropyl)-2-methoxybenzamide]	A (Selectivity of FGFR3/FGFR2 less than 150 but greater than or equal to 100)	C (Selectivity of FGFR1/FGFR2 less than 200 but greater than or equal to 100)
> 10 nM	–	–	C=CC(=O)Nc1ccc(-c2c(-c3ccc(C(=O)NC4CC4)c(OC)c3)c3c(N)ncc(C#N)c3n2C2CC2)cc1 [Compound 359, 4-(2-(4-acrylamidophenyl)-4-amino-7-cyano-1-cyclopropyl-1H-pyrrolo[3,2-c]pyridin-3-yl)-N-cyclopropyl-2-methoxybenzamide]	B (Selectivity of FGFR3/FGFR2 less than 100 but greater than or equal to 25)	A+ (Selectivity of FGFR1/FGFR2 greater or equal to 500)
> 10 nM	–	–	C=C(F)C(=O)Nc1ccc(-c2nn3ncnc(N)c3c2-c2ccc(C(=O)NCC(C)(F)F)c(OC)c2)cc1 [Compound 362, 4-(4-amino-6-(4-(2-fluoroacrylamido)phe-nyl)pyrazolo[5,1-f][1,2,4]triazin-5-yl)-N-(2,2-difluoropropyl)-2-methoxybenzamide]	A (Selectivity of FGFR3/FGFR2 less than 150 but greater than or equal to 100)	A+ (Selectivity of FGFR1/FGFR2 greater or equal to 500)
> 10 nM	–	–	C=CC(=O)Nc1ccc(-c2nn3ncnc(N)c3c2-c2ccc(Oc3ncc(C)cn3)c(F)c2)cc1 [Compound 376, N-(4-(4-amino-5-(3-fluoro-4-((5-methylpyrimidin-2-yl)oxy)phenyl)pyrazolo [5,1-f][1,2,4]triazin-6-yl)phenyl)acrylamide]	A+ (Selectivity of FGFR3/FGFR2 greater or equal to 150)	A+ (Selectivity of FGFR1/FGFR2 greater or equal to 500)
